Patent US6828450B2, “Triptycene analogs” (Kansas State University Research Foundation, priority 2000, dated 2004)
pIC50: −log10 of the molar value. Where “and” joins values, the source holds several entries; their conditions need not be identical. Equal values may be shown once. Read-outs that look alike come from different tables or passages of the source.

Experiments:
[1] = target: Malaria protease plasmepsin II (Plasmodium falciparum, UniProt P46925); experiment: Inhibition of malaria protease plasmepsin II; type: biochemical
Malaria protease plasmepsin II, sequence (P46925 125-453): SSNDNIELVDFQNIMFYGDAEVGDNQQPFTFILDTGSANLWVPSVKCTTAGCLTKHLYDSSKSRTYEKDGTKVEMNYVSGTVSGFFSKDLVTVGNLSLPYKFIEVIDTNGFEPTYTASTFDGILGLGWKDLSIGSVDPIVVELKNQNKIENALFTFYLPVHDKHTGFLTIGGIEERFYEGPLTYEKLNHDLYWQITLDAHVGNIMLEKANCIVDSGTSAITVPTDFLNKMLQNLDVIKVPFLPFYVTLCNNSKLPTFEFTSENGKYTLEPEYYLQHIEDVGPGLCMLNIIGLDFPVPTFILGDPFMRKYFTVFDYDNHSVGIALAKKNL

[2] = system: HL-60-R8 cells; experiment: Nucleoside transport in HL-60-R8 cells; type: cell-based, human; details: 15-min preincubation, 30 s
From the text: FIG. 15. Comparison of the concentration-dependent inhibitions of the cellular transport of purine (A) and pyrimidine (B) nucleosides by DAU (open symbols) and TT2 (closed symbols) in HL-60-S (circles), HL-60-RV (squares) and HL-60-R8 (triangles) cells in vitro. Results are expressed as % of ^3H-adenosine (26,032±2,239 cpm, 100±9%, striped area in A) and ^3H-thymidine (17,934±1,398 cpm, 100±8%, striped area in B) transported into vehicle-treated control cells over 30 s.
The MDR HL-60-RV and HL-60-R8 cells were developed in Melvin S. Center's laboratory (Kansas State University) and similarly maintained in RPMI 1640 medium in the absence of drugs (Marsh W, et al, Cancer Res 46: 4053-4057, 1986; McGrath T et al, and Center M S: Biochem Biophys Res Commun 145: 1171-1176, 1987; Marsh W and Center M S: Cancer Res 47: 5080-5086, 1987; McGrath T, et al, Biochem Pharmacol 38: 3611-3619, 1989; Marquardt D, et al, Cancer Res 50: 1426-1430, 1990; Marquardt D and Center M S: J Natl Cancer Inst 83: 1089-1109, 1991; Krishnamachary N and Center M S; Cancer Res 53: 3658-3661, 1993). Every 4 weeks, these HL-60-RV and HL-60-R8 sublines were exposed to 41 nM DAU for 48 h to stabilize their MDR phenotype. […] RFs were determined by dividing the IC50 of the MDR cells by that of the sensitive WT parent cell line. […]

[3] = system: L1210 cells; experiment: DNA cleavage (intact chromatin precipitation) in L1210 cells; type: cell-based, murine
Procedure: FIG. 19. Comparison of the concentration-dependent effects of novel TT analogs and known DNA-damaging anticancer drugs on DNA cleavage in L1210 cells in vitro. […] After lysing the cells in HLB containing 0.2% Triton X-100, the detergent-soluble DNA fragments present in the supernatants and the intact chromatin DNA remaining in the pellets were separated by centrifugation and their radioactivity estimated by LSC. Results are expressed as [cpm in supernatant/cpm in supernatant+pellet]×100 at 24 h. For untreated controls (5.3±0.6% DNA fragmentation; striped area), the supernatant is 741±79 cpm and the pellet is 13,293±1,446 cpm.
FIG. 20. Comparison of the abilities of novel TT analogs to induce DNA cleavage in L1210 cells in vitro. Cells containing prelabeled DNA were incubated at 37° C. for 24 h in the presence or absence (control) of 7 μM concentrations of the indicated compounds. The protocol of the experiment and the determination of the results were identical to those of FIG. 12.
FIG. 22. Irreversibility of the effects of novel TT analogs and known DNA-damaging anticancer drugs on DNA cleavage in L1210 cells in vitro. Cells containing prelabeled DNA were incubated at 37° C. for various periods of time in the presence or absence (control) of 10 μM TT1 or TT2 and 1.6 μM DAU or CPT. The protocol of the experiment and the determination of the results at 24 h were identical to those of FIG. 19, except that the drugs were either maintained in the medium for the whole 24-h period of incubation (open) or removed after the first 3 (striped) and 8 h (closed). After spinning and washing the appropriate samples to remove the drugs, cells were resuspended in 0.5 ml of fresh medium to complete the 24-h period of incubation in the absence of drugs. Vehicle-treated controls were similarly spun and washed at 3 and 8 h. Bars: means±SD (n=3).
Drug-induced DNA cleavage was determined by intact chromatin precipitation, using L1210, HL-60-S, HL-60-RV and HL-60-R8 cells which were prelabeled with 1 μCi of ^3H-thymidine for 2 h at 37° C., washed with 3×1 ml of ice-cold PBS, collected by centrifugation, and resuspended in fresh FCS-containing RPMI 1640 medium at a density of about 1×10^6 cells/0.5 ml for L1210 and 0.5×10^6 cells/0.5 ml for HL cells. Except when otherwise specified, such cells containing prelabeled DNA were then exposed for 24 h to TTs and drugs known to induce DNA fragmentation. After centrifugation at 200×g for 10 min to discard the drugs and wash the cells, the intact cell pellets were lysed for 30 min in 0.5 ml of HLB, centrifuged at 12,000×g for 30 min to collect the supernatants, and resuspended in 0.5 ml of HLB. After another similar centrifugation, the radioactivities in the pooled supernatants (detergent-soluble low molecular weight DNA fragments) and the pellet (intact chromatin DNA) were determined by LSC: % DNA fragmentation=[cpm in supernatant/cpm in supernatant+pellet]×100. Before being counted in 6 ml of Bio-Safe NA, the intact pelleted chromatin was incubated for 2 h at 60° C. in the presence of 0.6 ml of NCS tissue solubilizer (Amersham).

## COC1=C(Br)C(=O)C2=C(C1=O)C1C3=C(C(=O)C=C(N(C)C)C3=O)C2c2ccccc21 (stereo not drawn) [TT16, 2-Bromo-3-methoxy-6-(dimethylamino)-9,10-dihydro-9,10-[1′,2′]benzenoanthracene-1,4,5,8-tetraone]
[1]
  pIC50: 4.63

## COC1=CC(=O)C2=C(C1=O)C1C3=C(C(=O)C=CC3=O)C2c2ccccc21 (stereo not drawn) [TT2, 2-Methoxy-9,10-dihydro-9,10-[1′,2′]benzenoanthracene-1,4,5,8-tetraone]
[2]; purine nucleoside, read-out: IC50, cellular transport of 3H-adenosine in HL-60-R8 cells
  pIC50: 5.43
[2]; pyrimidine nucleoside, read-out: IC50, cellular transport of 3H-thymidine in HL-60-R8 cells
  pIC50: 5.64
[3]; 10 μM, drug removed after 3 and 8 h
  DNA fragmentation at 24 h after short exposure: 58-67%
[3]; 10 μM, whole 24 h
  DNA cleavage (% DNA fragmentation): 61% and 63%
[3]; DNA cleavage at 24 h, internucleosomal fragmentation at 48-72 h
  concentration at which induction of DNA cleavage peaks: 4 to 10 µM
[3]; L1210, 24 h
  times higher TT2 than DAU concentrations needed for the same peak of DNA cleavage: about 6 times

## COc1cccc2c1C(=O)c1c(O)c3c(c(O)c1C2=O)C[C@@](O)(C(C)=O)C[C@@H]3O[C@H]1C[C@H](N)[C@H](O)[C@H](C)O1 [DAU, daunomycin, reference compound]
[3]; 1.6 μM, 24 h
  DNA cleavage (% DNA fragmentation): 45%
[3]; 1.6 μM, maintained or removed after 3 or 8 h
  DNA fragmentation at 24 h, drug maintained or removed: 33-41%
